Activity, IC50 and inhibition data for 1 compound are collected here from ChEMBL document CHEMBL5365469, “Design, synthesis and antitumor effects of novel benzimidazole derivatives as PI3K inhibitors” (Bioorg Med Chem Lett, 2023).

Data set [1] concerns A549. The experiment in a line: Induction of cell cycle arrest in human A549 cells assessed as accumulation of cells at G0/G1 phase at 1.5 uM by FACS analysis ( Rvb = 49.93%). In kind it is functional.
The subject of data set [2] is A549. Description: Induction of cell cycle arrest in human A549 cells assessed as accumulation of cells at S phase at 6 uM by FACS analysis ( Rvb = 40.71%). Format: functional.
Data set [3] concerns A549. The experiment in a line: Induction of apoptosis in human A549 cells assessed as increase in apoptotic cells at 1.5 uM incubated for 48 hrs by Annexin V-FITC/PI staining analysis relative to control. Format: functional.
Data set [4] concerns A549. The experiment in a line: Induction of cell cycle arrest in human A549 cells assessed as accumulation of cells at G0/G1 phase at 6 uM by FACS analysis ( Rvb = 49.93%). In kind it is functional.
Data set [5] relates to A549. Description: Induction of apoptosis in human A549 cells assessed as increase in apoptotic cells at 3 uM incubated for 48 hrs by Annexin V-FITC/PI staining analysis relative to control. Format: functional.
A further data set has as its system HCT-116. The experiment in a line: Antiproliferative activity against human HCT-116 cells assessed as inhibition of cell growth by MTT assay. In kind it is functional, cell-based.
Data set [6] relates to A549. The experiment in a line: Inhibition of PI3K signalling pathway in human […] cells assessed as decrease in phosphorylated AKT level by Western blot assay. Format: cell-based. To be noted: dose 1.5-6 µM.
Data set [7] has as its system A549. The experiment in a line: Induction of cell cycle arrest in human A549 cells assessed as accumulation of cells at S phase at 1.5 uM by FACS analysis ( Rvb = 40.71%). Format: functional.
For the next data set, the system named is SiHa. Description: Antiproliferative activity against human SiHa cells assessed as inhibition of cell growth by MTT assay. In kind it is functional, cell-based.
Data set [8] relates to A549. Description: Induction of cell cycle arrest in human A549 cells assessed as accumulation of cells at G2/M phase at 6 uM by FACS analysis ( Rvb = 9.35%). Format: functional.
In data set [9] the test system is A549. The experiment in a line: Induction of cell cycle arrest in human A549 cells assessed as accumulation of cells at S phase at 3 uM by FACS analysis ( Rvb = 40.71%). Format: functional.
Data set [10] deals with A549. The experiment in a line: Induction of cell cycle arrest in human A549 cells assessed as accumulation of cells at G2/M phase at 3 uM by FACS analysis ( Rvb = 9.35%). In kind it is functional.
The test system of data set [11] is A549. Description: Induction of cell cycle arrest in human A549 cells assessed as accumulation of cells at G0/G1 phase at 3 uM by FACS analysis ( Rvb = 49.93%). In kind it is functional.
Data set [12] concerns A549. The experiment in a line: Inhibition of PI3K signalling pathway in human […] cells assessed as decrease in phosphorylated PI3K level by Western blot assay. In kind it is cell-based. The following applies: dose 1.5-6 µM.
Another data set relates to HepG2. The experiment in a line: Antiproliferative activity against human HepG2 cells assessed as inhibition of cell growth by MTT assay. In kind it is functional, cell-based.
Data set [13] is described as follows: Cytotoxicity against human L02 cells assessed as inhibition of cell growth by MTT assay. Format: toxicity, cell-based.
Another data set has as its system MCF7. Description: Antiproliferative activity against human MCF7 cells assessed as inhibition of cell growth by MTT assay. In kind it is functional, cell-based.
In data set [14] the test system is A549. Description: Induction of cell cycle arrest in human A549 cells assessed as accumulation of cells at G2/M phase at 1.5 uM by FACS analysis ( Rvb = 9.35%). In kind it is functional.
Data set [15] has as its system A549. Description: Induction of apoptosis in human A549 cells assessed as increase in apoptotic cells at 6 uM incubated for 48 hrs by Annexin V-FITC/PI staining analysis relative to control. In kind it is functional.
The next data set concerns PC-3. The experiment in a line: Antiproliferative activity against human PC-3 cells assessed as inhibition of cell growth by MTT assay. In kind it is functional, cell-based.
Data set [16] has as its system A549. Description: Antiproliferative activity against human A549 cells assessed as inhibition of cell growth by MTT assay. Format: functional, cell-based.

In the case of `COc1cc2nc(-c3cc(OC)c(OC)cc3OC)[nH]c2cc1C#Cc1ccccc1F`, the Activity is reported as 54.14% in the data set with A549 [1]; 32.41% with A549 [2]; 28.97% in the data set on A549 [3]; 60.61% in the data set with A549 [4]; 61.73% in the data set with A549 [5]; 37.71% in the data set with A549 [7]. The Activity with A549 [8] is listed as 6.64%; in the data set with A549 [9] it was 37.22%; in the data set on A549 [10], 7.83%; in the data set with A549 [11], 54.95%; with A549 [14] it was 8.15%; in the data set on A549 [15], 63.1%. Besides, the IC50 with HCT-116 was found to be 1.68 µM; with SiHa it was 9.36 µM; in the data set on HepG2, 88.7 µM; in data set [13] it was 41.5 µM; in the data set on MCF7, 2.01 µM; in the data set on PC-3, 25.5 µM. The IC50 in the data set on A549 [16] was determined as 1.55 µM. Also, the inhibition entry with A549 [6] and in the data set with A549 [12] was “Dose-Dependent Effect” throughout.
